Measured values reported in ChEMBL document CHEMBL1201862, “PubChem BioAssay data set” (2004).
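Where inhibition never reached the appropriate level, the endpoint shown equals the highest concentration tested. Otherwise, values were interpolated linearly from a five-concentration, 48-hour dose response in 96-well plates. GI50 = concentration required for 50% inhibition of growth.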 Active and inactive are the calls of the source. No stated cut-off is given here; in the data, active = GI50 up to about 1.1 µM and inactive = higher.

Legend:
Assay in all cases: DTP human tumour cell line panel, 48 h
786-0 = test system: 786-0
A498 = test system: A498
A549 = test system: A549
ACHN = test system: ACHN
CAKI-1 = test system: CAKI-1
CCRF-CEM = test system: CCRF-CEM
COLO 205 = test system: COLO 205
DLD-1 = test system: DLD-1
DMS-114 = test system: DMS-114
DMS-273 = test system: DMS-273
HCC 2998 = test system: HCC 2998
HCT-116 = test system: HCT-116
HCT-15 = test system: HCT-15
HL-60 = test system: HL-60
HOP-18 = test system: HOP-18
HOP-62 = test system: HOP-62
HOP-92 = test system: HOP-92
HT-29 = test system: HT-29
IGROV-1 = test system: IGROV-1
K562 = test system: K562
KM-20L2 = test system: KM-20L2
KM12 = test system: KM12
LOX IMVI = test system: LOX IMVI
LXFL 529 = test system: LXFL 529
M14 = test system: M14
M19-MEL = test system: M19-MEL
MOLT-4 = test system: MOLT-4
Malme-3M = test system: Malme-3M
NCI-H23 = test system: NCI-H23
NCI-H460 = test system: NCI-H460
NCI-H522 = test system: NCI-H522
OVCAR-3 = test system: OVCAR-3
OVCAR-4 = test system: OVCAR-4
OVCAR-5 = test system: OVCAR-5
OVCAR-8 = test system: OVCAR-8
RPMI-8226 = test system: RPMI-8226
RXF 393 = test system: RXF 393
SF-268 = test system: SF-268
SF-295 = test system: SF-295
SF-539 = test system: SF-539
SK-MEL-28 = test system: SK-MEL-28
SK-MEL-2 = test system: SK-MEL-2
SK-MEL-5 = test system: SK-MEL-5
SK-OV-3 = test system: SK-OV-3
SN12C = test system: SN12C
SNB-19 = test system: SNB-19
SNB-75 = test system: SNB-75
SR = test system: SR
SW-620 = test system: SW-620
TK-10 = test system: TK-10
U-251 = test system: U-251
UACC-62 = test system: UACC-62
UO-31 = test system: UO-31
EKVX = test system: EKVX
MCF7 = test system: MCF7
NCI-H226 = test system: NCI-H226
NCI/ADR-RES = test system: NCI/ADR-RES
UACC-257 = test system: UACC-257
XF498 = test system: XF498

N#CC(=C1C=CC(=NO)C=C1)c1ccc(Cl)cc1
GI50 (786-0): 2290 nM (inactive) | GI50 (A498): 67300 nM (inactive) | GI50 (A549): 18700 nM (inactive) | GI50 (ACHN): 10600 nM (inactive) | GI50 (CAKI-1): 15100 nM (inactive) | GI50 (CCRF-CEM): 2690 nM (inactive) | GI50 (COLO 205): 16800 nM (inactive) | GI50 (DLD-1): 14200 nM (inactive) | GI50 (DMS-114): 15400 nM (inactive) | GI50 (DMS-273): 6580 nM (inactive) | GI50 (HCC 2998): 17500 nM (inactive) | GI50 (HCT-116): 7520 nM (inactive) | GI50 (HCT-15): 13700 nM | GI50 (HL-60): 2360 nM (inactive) | GI50 (HOP-18): 49000 nM (inactive) | GI50 (HOP-62): 15300 nM (inactive) | GI50 (HOP-92): 20000 nM (inactive) | GI50 (HT-29): 5560 nM (inactive) | GI50 (IGROV-1): 17100 nM (inactive) | GI50 (K562): 3780 nM (inactive) | GI50 (KM-20L2): 19700 nM (inactive) | GI50 (KM12): 1690 nM (inactive) | GI50 (LOX IMVI): 3220 nM (inactive) | GI50 (LXFL 529): 4970 nM (inactive) | GI50 (M14): 16400 nM (inactive) | GI50 (M19-MEL): 15000 nM (inactive) | GI50 (MOLT-4): 5740 nM (inactive) | GI50 (Malme-3M): 21800 nM (inactive) | GI50 (NCI-H23): 23700 nM (inactive) | GI50 (NCI-H460): 18200 nM (inactive) | GI50 (NCI-H522): 2470 nM (inactive) | GI50 (OVCAR-3): 3520 nM (inactive) | GI50 (OVCAR-4): 22500 nM (inactive) | GI50 (OVCAR-5): 11900 nM (inactive) | GI50 (OVCAR-8): 19100 nM (inactive) | GI50 (RPMI-8226): 2600 nM (inactive) | GI50 (RXF 393): 16000 nM (inactive) | GI50 (SF-268): 11900 nM (inactive) | GI50 (SF-295): 16600 nM (inactive) | GI50 (SF-539): 7330 nM (inactive) | GI50 (SK-MEL-28): 15700 nM (inactive) | GI50 (SK-MEL-2): 4360 nM (inactive) | GI50 (SK-MEL-5): 7500 nM (inactive) | GI50 (SK-OV-3): 22200 nM (inactive) | GI50 (SN12C): 16500 nM (inactive) | GI50 (SNB-19): 42400 nM (inactive) | GI50 (SNB-75): 24300 nM (inactive) | GI50 (SR): 4830 nM (inactive) | GI50 (SW-620): 7210 nM (inactive) | GI50 (TK-10): 24700 nM (inactive) | GI50 (U-251): 13600 nM (inactive) | GI50 (UACC-62): 3710 nM (inactive) | GI50 (UO-31): 11500 nM (inactive)

COc1cc(C2c3cc4c(cc3[C@@H](Nc3ccc5c(c3)OCO5)C3COC(=O)[C@H]23)OCO4)cc(OC)c1O (some centres undefined)
GI50 (A498): 333 nM (active) | GI50 (A549): 29.4 nM (active) | GI50 (CAKI-1): 152 nM (active) | GI50 (CCRF-CEM): 64.1 nM (active) | GI50 (COLO 205): 1680 nM (inactive) | GI50 (DLD-1): 1550 nM (inactive) | GI50 (DMS-273): 105 nM (active) | GI50 (EKVX): 2450 nM (inactive) | GI50 (HCC 2998): 1420 nM (inactive) | GI50 (HCT-116): 740 nM (active) | GI50 (HCT-15): 336 nM | GI50 (HL-60): 43 nM (active) | GI50 (HOP-18): 766 nM (active) | GI50 (HOP-62): 177 nM (active) | GI50 (HOP-92): 424 nM (active) | GI50 (HT-29): 1240 nM (inactive) | GI50 (IGROV-1): 2490 nM (inactive) | GI50 (K562): 721 nM (active) | GI50 (KM-20L2): 2240 nM (inactive) | GI50 (KM12): 1790 nM (inactive) | GI50 (LOX IMVI): 456 nM (active) | GI50 (M19-MEL): 1650 nM (inactive) | GI50 (MCF7): 175 nM (active) | GI50 (MOLT-4): < 13.6 nM (active) | GI50 (Malme-3M): 1420 nM (inactive) | GI50 (NCI-H226): 217 nM (active) | GI50 (NCI-H23): 303 nM (active) | GI50 (NCI-H460): < 10 nM (active) | GI50 (NCI-H522): 1060 nM (active) | GI50 (NCI/ADR-RES): 482 nM (active) | GI50 (OVCAR-3): 2900 nM (inactive) | GI50 (OVCAR-5): 2740 nM (inactive) | GI50 (OVCAR-8): 1380 nM (inactive) | GI50 (RPMI-8226): 774 nM (active) | GI50 (RXF 393): 1090 nM (active) | GI50 (SF-268): 953 nM (active) | GI50 (SF-295): 213 nM (active) | GI50 (SF-539): 324 nM (active) | GI50 (SK-MEL-28): 3430 nM (inactive) | GI50 (SK-MEL-2): 2400 nM (inactive) | GI50 (SK-MEL-5): 630 nM (active) | GI50 (SK-OV-3): 1250 nM (inactive) | GI50 (SN12C): 643 nM (active) | GI50 (SNB-19): 299 nM (active) | GI50 (SNB-75): 991 nM (active) | GI50 (SW-620): 1200 nM (inactive) | GI50 (U-251): 185 nM (active) | GI50 (UACC-257): 507 nM (active) | GI50 (UACC-62): 322 nM (active) | GI50 (UO-31): 382 nM (active) | GI50 (XF498): 1640 nM (inactive)
